What was measured:
Assay in all cases: relative viability (nuclei count vs DMSO), 5 days (fraction); higher = more cells survive
Avagacestat + Vorinostat = compound: NC(=O)[C@@H](CCC(F)(F)F)N(Cc1ccc(-c2ncon2)cc1F)S(=O)(=O)c1ccc(Cl)cc1 [Avagacestat] + O=C(CCCCCCC(=O)Nc1ccccc1)NO [Vorinostat] (partner 1 µM)
How it was run: (§1)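 Five library-drug doses in √10 steps were combined with a fixed anchor-drug dose, or a single drug was given alone, by pin tool to lung cancer cell lines in 1536-well plates the day after seeding. Nuclei were stained and counted after 5 days. Relative viability is the nuclei count in treated wells over that in vehicle wells, taken as the median of duplicate plates.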

Avagacestat + Dasatinib = compound: NC(=O)[C@@H](CCC(F)(F)F)N(Cc1ccc(-c2ncon2)cc1F)S(=O)(=O)c1ccc(Cl)cc1 [Avagacestat] + Cc1nc(Nc2ncc(C(=O)Nc3c(C)cccc3Cl)s2)cc(N2CCN(CCO)CC2)n1 [Dasatinib] (partner 0.075 µM)
How it was run: as §1

Avagacestat + Pictilisib = compound: NC(=O)[C@@H](CCC(F)(F)F)N(Cc1ccc(-c2ncon2)cc1F)S(=O)(=O)c1ccc(Cl)cc1 [Avagacestat] + CS(=O)(=O)N1CCN(Cc2cc3nc(-c4cccc5[nH]ncc45)nc(N4CCOCC4)c3s2)CC1 [Pictilisib] (partner 1 µM)
How it was run: as §1

Avagacestat + Crizotinib = compound: NC(=O)[C@@H](CCC(F)(F)F)N(Cc1ccc(-c2ncon2)cc1F)S(=O)(=O)c1ccc(Cl)cc1 [Avagacestat] + C[C@@H](Oc1cc(-c2cnn(C3CCNCC3)c2)cnc1N)c1c(Cl)ccc(F)c1Cl [Crizotinib] (partner 1 µM)
How it was run: as §1

Row | Cell Line | relative viability (Avagacestat + Vorinostat; first compound 0.08 µM) | relative viability (Avagacestat + Vorinostat; first compound 0.253 µM) | relative viability (Avagacestat + Vorinostat; first compound 0.8 µM) | relative viability (Avagacestat + Vorinostat; first compound 2.53 µM) | relative viability (Avagacestat + Vorinostat; first compound 8 µM) | relative viability (Avagacestat + Dasatinib; first compound 0.08 µM) | relative viability (Avagacestat + Dasatinib; first compound 0.253 µM) | relative viability (Avagacestat + Dasatinib; first compound 0.8 µM) | relative viability (Avagacestat + Dasatinib; first compound 2.53 µM) | relative viability (Avagacestat + Dasatinib; first compound 8 µM) | relative viability (Avagacestat + Pictilisib; first compound 0.08 µM) | relative viability (Avagacestat + Pictilisib; first compound 0.253 µM) | relative viability (Avagacestat + Pictilisib; first compound 0.8 µM) | relative viability (Avagacestat + Pictilisib; first compound 2.53 µM) | relative viability (Avagacestat + Pictilisib; first compound 8 µM) | relative viability (Avagacestat + Crizotinib; first compound 0.08 µM) | relative viability (Avagacestat + Crizotinib; first compound 0.253 µM) | relative viability (Avagacestat + Crizotinib; first compound 0.8 µM) | relative viability (Avagacestat + Crizotinib; first compound 2.53 µM) | relative viability (Avagacestat + Crizotinib; first compound 8 µM)
1 | LXF-289 | 0.954 | 0.884 | 0.791 | 0.921 | 0.86 | 0.196 | 0.183 | 0.168 | 0.191 | 0.152 | 0.786 | 0.857 | 0.781 | 0.753 | 0.66 | 0.852 | 0.941 | 0.795 | 0.816 | 0.774
2 | NCI-H23 | 0.921 | 0.66 | 0.665 | 0.69 | 0.592 | 0.859 | 0.875 | 0.937 | 0.733 | 0.912 | 0.523 | 0.453 | 0.472 | 0.475 | 0.555 | 0.547 | 0.473 | 0.627 | 0.471 | 0.345
3 | NCI-H322M | 0.811 | 0.779 | 0.855 | 0.821 | 0.777 | 0.281 | 0.242 | 0.247 | 0.251 | 0.257 | 0.503 | 0.487 | 0.478 | 0.441 | 0.415 | 0.874 | 1.03 | 0.952 | 0.934 | 0.787
4 | NCI-H358 | 0.911 | 0.762 | 0.733 | 0.557 | 0.679 | 0.163 | 0.159 | 0.164 | 0.155 | 0.148 | 0.356 | 0.337 | 0.493 | 0.349 | 0.385 | 0.555 | 0.579 | 0.457 | 0.609 | 0.545
5 | NCI-H441 | 0.991 | 0.932 | 0.899 | 0.761 | 0.595 | 0.518 | 0.471 | 0.541 | 0.532 | 0.454 | 0.54 | 0.515 | 0.496 | 0.442 | 0.415 | 0.977 | 0.816 | 0.71 | 1.19 | 0.629
6 | NCI-H460 | 1.37 | 0.69 | 0.828 | 0.554 | 0.57 | 0.625 | 0.59 | 0.747 | 0.402 | 0.475 | 0.425 | 0.361 | 0.454 | 0.441 | 0.365 | 1.86 | 1.69 | 0.977 | 0.893 | 0.853
7 | NCI-H520 | 0.8 | 0.767 | 0.773 | 0.637 | 0.639 | 0.267 | 0.16 | 0.158 | 0.168 | 0.162 | 0.302 | 0.291 | 0.274 | 0.229 | 0.205 | 0.895 | 0.836 | 0.729 | 0.727 | 0.459
8 | NCI-H596 | 0.591 | 0.643 | 0.609 | 0.588 | 0.627 | 0.592 | 0.651 | 0.654 | 0.451 | 0.648 | 0.414 | 0.43 | 0.395 | 0.354 | 0.374 | 1.1 | 0.944 | 1.02 | 0.78 | 0.925
